Measurements taken from patent US20230095199A1, “DIMETHYL SULFOXIDE (DMSO) FORMULATIONS FOR TREATING AUTISM” (Abela Pharmaceuticals, Inc., priority 2010, published 2023).
Entries after “also recorded” stand apart in the source; their conditions may differ.

Tested on: patient, diagnosed with an autism spectrum disorder
Test: Case treatment of a patient with autism spectrum disorder with oral MSM and/or DMSO
Assay type: in vivo
Experimental: A patient, diagnosed with an autism spectrum disorder, was treated with a combination of MSM and DMSO, beginning. […] In some embodiments, combination of MSM and DMSO unexpectedly improve one or more symptoms associated with autism, as compared to administration of MSM or DMSO individually. In several embodiments, in addition to the beneficial therapeutic effects, the combination of MSM and DMSO reduces one or more of the side effects typically associated with DMSO administration (e.g., odor, gastrointestinal distress). In some embodiments, these unexpected effects are the result of the continued (e.g., daily) administration of MSM/DMSO, while in other embodiments, these effects are long-term (e.g., persist beyond the period of continued administration of MSM/DMSO). Moreover, in certain embodiments, combinations of MSM and DMSO result in synergistic therapeutic effects for one or more of the symptoms of autism. In some embodiments, these synergistic effects are the result of the continued (e.g., daily) administration of MSM/DMSO, while in other embodiments, these effects are long-term (e.g., persist beyond the period of continued administration of MSM/DMSO).
The patient's symptoms include stimming, nighttime stimming, hyperactive gag reflex, impaired social interaction, a lack of vocalization and communication, delayed success with toilet training, and constipation. DMSO/MSM treatment was initiated for patient. The patient was treated with 4.7 grams of oral MSM solution daily (4½ teaspoons daily of a 15% solution). […] The patient was also treated with 4.7 grams of MSM and 0.025 grams of DMSO in an oral solution (4½ teaspoons daily of 15% MSM and 0.1% DMSO).
The patient was also treated with two short term bolus treatments with increased amounts of DMSO. In addition to the 4.7 g of MSM and 0.025 g of DMSO in an oral solution, the patient received an additional 4.8 g/day of DMSO for a short duration of 10 days (1 teaspoon, 90% oral solution). […] The patient's chronic constipation was also eliminated during these treatment cycles of higher doses of DMSO.
The patient was further treated with an oral formulation comprising 4.7 g of MSM and […] of DMSO. Improvements in communication, social interaction, and constipation continued at this dosage.

[1] = additional 4.8 g/day DMSO (90% oral solution) for 10 days on top of 4.7 g MSM and 0.025 g DMSO
[2] = after one month of 4.7 g MSM daily

C[S+](C)[O-] [DMSO, Dimethyl sulfoxide]
ability to vocalize [1]: improved dramatically | chronic constipation [1]: eliminated; also recorded: vastly improved | different words vocalized during a session (larger dose of DMSO for 10 days in addition to normal treatment): six

CS(C)(=O)=O [MSM, Methylsulfonylmethane]
frequency of nightly stimming (4.7 g MSM daily (15% solution)): reduced from every night to once every two or three weeks | time until improvement of stimming was noted (4.7 g MSM daily (15% solution)): ≤ 12 weeks | reduction of daytime stimming (4.7 g oral MSM daily (15% solution)): about 80% | incidents of hyperactive gag reflex (4.7 g oral MSM daily (15% solution), within 12 weeks): reduced from multiple times per day to only a few times per month | reduction of stimming (especially night-time stimming) (4.7 g oral MSM daily (15% solution, 4½ teaspoons), within 12 weeks): about 90% | signs known [2]: gained an additional sign | time engaged in an activity [2]: 8 to 10 min | vocalization [2]: became more vocal
